We go through eight compounds from patent US20250115633A1, “PHOTODYNAMIC THERAPY AND DIAGNOSIS” (RMW CHO Group Limited, priority 2021, published 2025).

The IC90 is the concentration needed for an effect of 90%.

For series [1], the system named is SKOV3 ovarian cancer cells. In words: Inherent cytotoxicity (dark toxicity) in SKOV3 cells (AlamarBlue viability). It is filed as cell-based, Human. On the procedure:
(§1) Samples were stored at 4° C. protected from light.
(§2) All data are shown as mean±SD (where appropriate).
Untreated cells were used as a control. […] All measurements were made in quadruplicate.
(The colour change of resazurin is a common sign of viable cells or microbes.)

In series [2] the test system is SKOV3 ovarian cancer cells. Kind of series: Phototoxicity in SKOV3 cells after 660 nm light activation (AlamarBlue viability). The settings on record: read-out: Phototoxicity μM (IC90). The class given is cell-based, Human. On the procedure:
as §1, §2
Media was then replaced with fresh media containing AlamarBlue, and % viable cells remaining assessed as above. Controls included cells treated with chlorin e4 analogues but not activated by laser light; cells without chlorin e4 analogue treatment but with laser light; and untreated controls. All measurements were made in quadruplicate.

[3] abbreviates: SKOV3, 24 hours incubation, no light activation.
Where [4] appears, read: SKOV3, 24 hours uptake, 660 nm, 50 mW/cm^2 for 5 mins (total 15 J/cm^2), * phototoxicity measured by LED.
Where [5] appears, read: Homo sapiens, SK-OV-3, light or radiation study.

Counter-ions that a name gives are not always drawn. Like-named read-outs stand apart in the source and are kept apart here.

In the case of “chlorin e4 dimethyl ester 13-(6-(triphenylphosphonium bromide)hexyl)carbamate [Compound 3]”, in series [1] (setting [3]), the “Dark toxicity μM (IC10)” value stood at 0.838 µM. The IC90 in series [2] (setting [4]) was 0.0041 µM.

Take `C=Cc1c(C)c2cc3nc(c(C)c4[nH]c(cc5nc(cc1[nH]2)C(C)=C5CC)c(C)c4C(=O)O)[C@@H](CCC(=O)O)[C@@H]3C` [Chlorin e4 disodium, Chlorin e4 Disodium Salt, reference compound]: the “Dark toxicity μM (IC10)” value in series [1] worked out at 40.23 µM. Moreover, the concentration for an effect of 90% (IC90) in series [2] (SKOV3, 24 hours uptake, 660 nm, 50 mW/cm^2 for 5 mins (total 15 J/cm^2), values not marked * (laser)) was determined as 21.3 µM.

“chlorin e4 13-hydroxymethyl dimethyl ester”: the “Dark toxicity μM (IC10)” value in series [1] turned out to be 42.830 µM. The IC90 in series [2] (setting [4]) is 0.325 µM.

On to `CCC1=C(C)c2cc3[nH]c(cc4nc(c(C)c5[nH]c(cc1n2)c(C)c5C(=O)OC)[C@@H](CCC(=O)OC)[C@@H]4C)c(C)c3COC(=O)NCC[P+](c1ccccc1)(c1ccccc1)c1ccccc1` [Compound 6, chlorin e4 dimethyl ester 13-(N-(2-triphenylphosphoniumethyl)bromide)carbamate], for which the “Dark toxicity μM (IC10)” value in series [1] (setting [3]) was 2.281 µM. In series [2] (Homo sapiens, SK-OV-3, light or radiation study, SKOV3, 24 hours uptake, 660 nm, 50 mW/cm^2 for 5 mins (total 15 J/cm^2), * phototoxicity measured by LED), the IC90 is 0.0018 µM.

On to `CCC1=C(C)c2cc3[nH]c(cc4nc(c(C)c5[nH]c(cc1n2)c(C)c5C(=O)OC)[C@@H](CCC(=O)OC)[C@@H]4C)c(C)c3COC(=O)NCCC[P+](c1ccccc1)(c1ccccc1)c1ccccc1` [Compound 5, chlorin e4 dimethyl ester 13-(N-(3-triphenylphosphoniumpropyl)bromide)carbamate], for which the “Dark toxicity μM (IC10)” value in series [1] (setting [3]) amounted to 3.046 µM. In addition, the 90% effect concentration (IC90) in series [2] (setting [5]) came to 0.0029 µM.

Take `CCC1=C(C)c2cc3[nH]c(cc4nc(c(C)c5[nH]c(cc1n2)c(C)c5C(=O)OC)[C@@H](CCC(=O)OC)[C@@H]4C)c(C)c3C(C)OCCCS[C@@H]1O[C@H](CO)[C@@H](O)[C@H](O)[C@H]1O` (stereo partly drawn) [Compound 1, methyl (7S,8S)-18-ethyl-7-(3-methoxy-3-oxopropyl)-2,5,8,12,17-pentamethyl-13-(1-(3-(((2S,3R,4S,5S,6R)-3,4,5-trihydroxy-6-(hydroxymethyl)tetrahydro-2H-pyran-2-yl)thio)propoxy)ethyl)-7H,8H-porphyrin-3-carboxylate]: the “Dark toxicity μM (IC10)” value in series [1] (setting [3]) was 8.64 µM. Besides, the IC90 in series [2] (setting [5]) is 0.06 µM.

On to `CCC1=C(C)c2cc3[nH]c(cc4nc(c(C)c5[nH]c(cc1n2)c(C)c5C(=O)OC)[C@@H](CCC(=O)OC)[C@@H]4C)c(C)c3COC(=O)NCCCOCCC[P+](c1ccccc1)(c1ccccc1)c1ccccc1` [Compound 4, chlorin e4 dimethyl ester 13-(N-(3-(3-triphenylphosphoniumpropoxy)propyl)chloride)carbamate], for which the “Dark toxicity μM (IC10)” value in series [1] (setting [3]) came out at 3.881 µM. The IC90 in series [2] (setting [5]) turned out to be 0.0024 µM.

For the compound `C=Cc1c(C)c2cc3nc(c(CC(=O)N[C@@H](CC(=O)O)C(=O)O)c4[nH]c(cc5nc(cc1[nH]2)C(C)=C5CC)c(C)c4C(=O)O)[C@@H](CCC(=O)O)[C@@H]3C` [Talaporfin sodium, reference compound], the “Dark toxicity μM (IC10)” value in series [1] (setting [3]) is 11.10 µM.
